Source: US7491745B2, “Pyrrole-Type compounds, compositions and methods for treating cancer or viral disease” (Gemin X Pharmaceuticals Canada Inc., priority 2000, dated 2009)
pIC50: −log10 of the molar value.

Columns and labels:
[1] = test system: Normal Human Breast Epithelial Cells; experiment: In vitro cytotoxicity assay (trypan blue), normal breast cells; assay type: cell-based; settings: for Cytoxicity (% Dead cells): Normal Human Breast Epithelial Cells
Method: (§1) Normal and cancerous human breast cells were plated at a density of ˜70,000-80,000 cells/well in 24 well plates. Each test compound was added to the cell media at the indicated concentration and incubated at 37° C. in a CO2 incubator for the indicated time. Following incubation, cells were harvested and exposed to trypan blue dye; dead cells were stained exclusively (living cells remained unstained) and counted.

[2] = test system: MCF-7 Breast Cancer cells; experiment: In vitro cytotoxicity assay (trypan blue), MCF-7; assay type: cell-based, human; settings: for Cytoxicity (% Dead cells): MCF-7 Breast Cancer cells
Method: as §1

[3] = test system: MBA-MB231 Breast Cancer cells; experiment: In vitro cytotoxicity assay (trypan blue), MBA-MB231; assay type: cell-based, human; settings: for Cytoxicity (% Dead cells): MBA-MB231 Breast Cancer cells, 72 h
Method: as §1

[4] = test system: Normal and cancerous human breast cells; experiment: In vitro cytotoxicity assay, selective toxicity to oncogenic cells relative to normal cells; assay type: cell-based; settings: trypan blue cytotoxicity assay
Method: as §1

[5] = test system: C33A cervical carcinoma cells; experiment: Cell viability, cellular ATP levels (ViaLight), C33A; assay type: cell-based, human; settings: 72 hours; for effect on ATP levels in C33A cancer cell line compared with HMEC and MRC-5 normal cells (FIG. 1): 0.05 μM
Description: (§2) C33A cervical carcinoma cells, Mrc-5 normal lung fibroblasts, PC-3 human prostatic carcinoma cell line, OVCAR-3 human ovarian carcinoma cal line, H460 large cell lung cancer cell line, A549 human lung carcinoma cell line, H1299 human non-small cell lung cancer cells, MCF-7 human breast cancer cell line, SW-480 human adenocarcinoma cell line, B16-F1 mouse melanoma cell line (American Type Culture Collection, Manassas, Va. USA), HMEC normal mammary epithelial cells (Clonetics San Diego, Calif., USA) and ADR-RES human breast cancer cell line (NCI, MD, USA) were cultured in the media recommended by the American Type Culture Collection. The cells lines were plated in 96-well microtiter plates (PerkinElmer Life Sciences Inc, Boston, Mass., USA) at a density that allowed them to reach confluence after 4 days of growth. One day after plating, the cells were treated with various concentrations of Compound 138T or Compound 139T. Stock solutions of the compounds were prepared in dimethyl sulfoxide (Sigma-Aldrich Inc., St. Louis, Mo., USA), diluted in media and then added to the cells. The total dimethyl sulfoxide on the cells was 1%. After 3 days of incubation the ATP levels in the cells were quantified using the luminescent ViaLight detection system (Bio-Whittaker, Md., USA). The results were plotted relative to untreated control cells, which were set at 100 (FIG. 1).

[6] = Body weight and survival of C33A tumor-bearing SCID mice; assay type: in vivo, CB17 SCID/SCID mice
Method: (§3) C33A cells were injected subcutaneously into the flanks of the female CB17 SCID/SCID mice. Each mouse was inoculated with a suspension of 2×10^6 tumor cells per 100 μl on day 0. There were ten mice in each treatment group, i.e., in the control group, the positive control group and the Compound 138T group.
(§4) Treatments started on day fourteen after C33A cells transplantation. Compound 138T was administered intravenously once daily for five consecutive days at a dose of 8 mg/kg. a solution of Compound 138T was prepared fresh daily in a vehicle solution of 5% Dextrose (Abbot Laboratories, QC, Canada) and 2% Tween20 (Sigma, St. Louis, Mo., USA). The control group was treated with vehicle alone. The injection volume for both, the Compound 138T treated group and the control group was 150 μl. The positive control group was treated once every 3 days for five times with cisplatin (Sigma, St. Louis, Mo., USA) at a dose of 4 mg/kg. Cisplatin was formulated in PBS on each day of the injection and was administered intraperitoneally in an injection volume of 80 μl.
(§5) The mice were weighed and the tumors were measured on day 13 and every 2 days after the treatment commenced. Observation continued for 40 days after initial tumor implantation. The changes in body weight and in the calculated tumor volume were plotted (FIG. 2 to 4).

[7] = test system: PC-3 human prostatic carcinoma cell line; experiment: Cell viability, cellular ATP levels (ViaLight), PC-3; assay type: cell-based; settings: Cell line PC-3, Prostate, 72 hours, read-out: IC50 of Compound 138T
Description: as §2

[8] = test system: OVCAR-3 human ovarian carcinoma cal line; experiment: Cell viability, cellular ATP levels (ViaLight), OVCAR-3; assay type: cell-based; settings: Cell line OVCAR-3, Ovary, 72 hours, read-out: IC50 of Compound 138T
Description: as §2

[9] = test system: H460 large cell lung cancer cell line; experiment: Cell viability, cellular ATP levels (ViaLight), H460; assay type: cell-based; settings: Homo sapiens, NCI-H460, Cell line H460, NSCL-LC, 72 hours, read-out: IC50 of Compound 138T
Description: as §2

[10] = test system: A549 human lung carcinoma cell line; experiment: Cell viability, cellular ATP levels (ViaLight), A549; assay type: cell-based; settings: Cell line A549, NSCL-aden, 72 hours, read-out: IC50 of Compound 138T
Description: as §2

[11] = test system: H1299 human non-small cell lung cancer cells; experiment: Cell viability, cellular ATP levels (ViaLight), H1299; assay type: cell-based; settings: NCI-H1299, Cell line H1299, NSCL-LC, 72 hours, read-out: IC50 of Compound 138T
Description: as §2

[12] = test system: ADR-RES human breast cancer cell line; experiment: Cell viability, cellular ATP levels (ViaLight), ADR-RES; assay type: cell-based; settings: Cell line NCI/ADR-RES, Breast (Mutli-drug resistant), 72 hours, read-out: IC50 of Compound 138T
Description: as §2

[13] = test system: MCF-7 human breast cancer cell line; experiment: Cell viability, cellular ATP levels (ViaLight), MCF-7; assay type: cell-based; settings: MCF7, Cell line MCF-7, Breast, 72 hours, read-out: IC50 of Compound 138T
Description: as §2

[14] = test system: SW-480 human adenocarcinoma cell line; experiment: Cell viability, cellular ATP levels (ViaLight), SW-480; assay type: cell-based; settings: SW480, Cell line SW-480, Colorectal, 72 hours, read-out: IC50 of Compound 138T
Description: as §2

[15] = test system: B16-F1 mouse melanoma cell line; experiment: Cell viability, cellular ATP levels (ViaLight), B16-F1; assay type: cell-based; settings: Cell line B16-F1, Murine Melanoma, 72 hours, read-out: IC50 of Compound 138T
Description: as §2

[16] = test system: HMEC normal mammary epithelial cells; experiment: Cell viability, cellular ATP levels (ViaLight), HMEC; assay type: cell-based; settings: 72 hours
Description: as §2

[17] = test system: human cervical cancer C33A; experiment: Antitumor activity in vivo, C33A tumors in SCID mice (tumor volume); set-up: species or system CB17 SCID/SCID mice
Method: The C33A human cervical cancer cells were maintained in RPMI (Hyclone, Utah, USA) supplemented with 10% inactivated fetal bovine serum (Bio-Whittaker, Md., USA) and 1% penicillin-streptomycin-L-Glutamine (Gibco, N.Y., USA), under 5% CO2 at 37° C., and passaged twice a week. The cells were grown at a confluency lower than 70% and than collected with Trypsin (Bio-Whittaker, Md., USA). Cells were then centrifuged and washed two time in phosphate buffer solution (PBS) and resuspended in PBS at 2×10^6 cells per 100 μl. Viability was examined by staining with trypan blue (Gibco, N.Y., USA) and only flasks with cell viability greater than 95% were used for in vivo studies.
as §3, §4, §5

[18] = 8 mg/kg intravenously once daily for five consecutive days from day fourteen

For CCCCC1CCCCCCc2cc1c(/C=C1\N=C(c3ccc[nH]3)C=C1OC)[nH]2 (stereo not shown) [Butyl-meta-cycloheptylprodiginine, 2-Butyl-11-((3-methoxy-5-(1H-pyrrol-2-yl)-2H-pyrrol-2-ylidene)methyl)-10-azabicyclo[7.2.1]dodeca-9(12),11-diene], the “cell death in normal cells” value ([1]; 0.25 mM concentration (Table 10)) was 5%, the “Cytoxicity (% Dead cells)” value ([1]; 0.25 μM, 72 h) was 5% and the “Cytoxicity (% Dead cells)” value ([1]; 1.0 μM, 72 h) was 5%. For the same compound, the “Cytoxicity (% Dead cells)” value ([1]; 2.0 μM, 72 h) was 15%, the “cell death in cancer cells” value ([2]; 0.25 mM concentration (Table 10), first cancer cell value, MCF-7 in Table 10) was 70% and the “Cytoxicity (% Dead cells)” value ([2]; 0.25 μM, 72 h) was 70%. The “Cytoxicity (% Dead cells)” value ([2]; 1.0 μM, 72 h) was 100%, the “Cytoxicity (% Dead cells)” value ([2]; 2.0 μM, 72 h) was 100% and the “cell death in cancer cells” value ([3]; 0.25 mM concentration (Table 10), second cancer cell value, MBA-MB231 in Table 10) was 64%. The “Cytoxicity (% Dead cells)” value ([3]; 0.25 μM) was 64%, the “Cytoxicity (% Dead cells)” value ([3]; 1.0 μM) was 100% and the “Cytoxicity (% Dead cells)” value ([3]; 2.0 μM) was 100%. The “selective toxicity to breast cancer cells relative to normal human breast epithelial cells” value [4] was “selectively killed the breast cancer cells”.
With CCCCc1cc(C)c(C=C2N=C(c3ccc[nH]3)C=C2OC)[nH]1 [Compound 139T, 5′-(5-Butyl-3-methyl-1H-pyrrol-2-ylmethylene)-4′-methoxy-1H,5′H-[2,2′]bipyrrolyl] the “effect on ATP levels in C33A cancer cell line compared with HMEC and MRC-5 normal cells (FIG. 1)” value [5] was “significantly more effective at lowering ATP levels in C33A cancer cell line”.
For N.N.[Cl][Pt][Cl] [cisplatin], the weight loss ([6]; 4 mg/kg intraperitoneally once every 3 days for five times, day 29) was 28% and the “mice died in treated group” value ([6]; 4 mg/kg intraperitoneally once every 3 days for five times, days 29 and 32, ten mice per group) was “Two”.
With Ethyl-meta-cyclononylprodiginine the “Cytoxicity (% Dead cells)” value ([1]; 0.2 μM, 24 h) was 10%, the “Cytoxicity (% Dead cells)” value ([1]; 1.0 μM, 24 h) was 9% and the “Cytoxicity (% Dead cells)” value ([1]; 2.0 μM, 24 h) was 15%. The “Cytoxicity (% Dead cells)” value ([2]; 0.2 μM, 24 h) was 45%, the “Cytoxicity (% Dead cells)” value ([2]; 1.0 μM, 24 h) was 62% and the “Cytoxicity (% Dead cells)” value ([2]; 2.0 μM, 24 h) was 65%.
In the case of COC1=CC(c2ccc[nH]2)=NC1=Cc1[nH]c(C)cc1C [Compound 138T, 5′-(3,5-Dimethyl-1H-pyrrol-2-ylmethylene)-4′-methoxy-1H,5′H-[2,2′]bipyrrolyl], the “effect on ATP levels in C33A cancer cell line compared with HMEC and MRC-5 normal cells (FIG. 1)” value [5] was “significantly more effective at lowering ATP levels in C33A cancer cell line”, the pIC50 ([5]; Homo sapiens, C-33-A, Cell line C3AA, Cervix, ATP levels, read-out: IC50 of Compound 138T) was 7.52 and the pIC50 [7] was 7.30. It also gave a pIC50 [8] of 7.52, a pIC50 [9] of 7.22 and a pIC50 [10] of 7.10. The pIC50 [11] was 7.15, the pIC50 [12] was 7.15 and the pIC50 [13] was 7.15. For the same compound, the pIC50 [14] was 7.30, the pIC50 [15] was 7.70 and the “effect on ATP levels in cancer cell lines compared with normal HMEC cell line” value ([16]; ten cancer cell lines) was “significantly more effective at lowering ATP levels in all the cancer cell lines”. The pIC50 ([16]; Homo sapiens, Cell line HMEC, Normal Breast, ATP levels, read-out: IC50 of Compound 138T) was 5.70, the “effect on human cervical tumors implanted in SCID mice” value ([17]; 8 mg/kg intravenously once daily for five consecutive days) was “significantly reduces the human cervical tumors implanted in SCID mice” and the “tumor volume curve versus control, values in standard error of the mean (FIG. 4)” value [17, 18] was “significantly different from control curve for a longer period of time, until day 39”. For the same compound, the “tumor volume versus control, values expressed in 95% confidence interval (FIG. 3)” value [17, 18] was “significantly less than control until day 29”, the “tumor volume curve compared with the cisplatin treated group” value ([17]; 8 mg/kg intravenously once daily for five consecutive days, cisplatin 4 mg/kg intraperitoneally) was “follows the tumor volume curve of the cisplatin treated group until day 39” and the weight loss ([6]; 8 mg/kg intravenously once daily for five consecutive days, day 22) was 10%.
